# Results reported in PMC8247773, “Benzohydrazide and Phenylacetamide Scaffolds: New Putative ParE Inhibitors” (Frontiers in Bioengineering and Biotechnology, 2021).
# Experiments:
# [1] = system: Escherichia coli (NCIM 2065); assay: Antibacterial susceptibility test, microbroth dilution MIC; format: cell-based; conditions: E. Coli (NCIM 2065); mean ± SD
# [2] = system: Pseudomonas aeruginosa (NCIM 2036); design: method as in Yele et al., 2020, 2021; conditions: ref Yele et al., 2020, 2021; cited from earlier work
# [3] = system: Bacillus subtilis (NCIM 2545); design: method as in Yele et al., 2020, 2021; conditions: ref Yele et al., 2020, 2021; cited from earlier work
# [4] = system: MRSA (NCIM 5021); assay: Antibacterial susceptibility test, microbroth dilution MIC; format: cell-based, methicillin-resistant Staphylococcus aureus; conditions: mean ± SD
# [5] = system: Staphylococcus aureus (NCIM 5022); design: method as in Yele et al., 2020, 2021; conditions: ref Yele et al., 2020, 2021; cited from earlier work
# [6] = system: Escherichia coli (NCIM 2065); assay: Minimum bactericidal concentration (MBC); format: cell-based; conditions: E. Coli (NCIM 2065); for MBC/MIC: ratio ≤2 bactericidal, ≥4 tolerance
# Procedure: (§1) MBC can be defined as the minimum concentration of a compound required to kill the bacteria over a fixed period under precise conditions. […] Colonies were counted, and colony forming unit (CFU) per milliliter was calculated.
# [7] = system: MRSA (NCIM 5021); assay: Minimum bactericidal concentration (MBC); format: cell-based, methicillin-resistant Staphylococcus aureus
# Procedure: as §1
# [8] = system: MRSA (ATCC43300); assay: Minimum bactericidal concentration (MBC); format: cell-based, methicillin-resistant Staphylococcus aureus
# Procedure: as §1
# [9] = system: Mycobacterium tuberculosis (NCIM 2984); design: method as in Yele et al., 2020, 2021; conditions: ref Yele et al., 2020, 2021; cited from earlier work
# [10] = system: Klebsiella pneumonia (NCIM 2706); design: method as in Yele et al., 2020, 2021; conditions: ref Yele et al., 2020, 2021; cited from earlier work
# [11] = target: T1, E. coli ParE enzyme (Escherichia coli, UniProt P20083); assay: E. coli ParE ATPase enzyme inhibition assay (ProFoldin kit, malachite green); format: biochemical; conditions: ATPase activity, mean ± SD (n = 3)
# T1 construct: purchased ProFoldin, Hudson, United States
# Procedure: The assay was performed as per the standard protocol provided by the ProFoldin. […] ParE hydrolyzes ATP as the source of molecular energy to perform decatenation reactions. Fluoroquinolones and aminocoumarins usually block ATPase activity to hinder the biological activities of topoisomerase II. Thus, the topoisomerase ATPase assay can be used for high-throughput screening of topoisomerase inhibitors. The ATPase activity of the E. coli ParE enzyme was based on the detection of inorganic phosphate produced by the hydrolysis of ATP in the presence of DNA. The phosphate is detected using a microplate reader at an absorbance wavelength of 650 nm. The selected compounds were tested for the inhibition of ATPase activity of ParE enzyme. […] The reaction mixture was incubated for 1 h at 37°C and then quenched with 45 μL of Dye. Incubate for 5 min, and the absorbance was measured at 650 nm. The IC50 values were determined from the absorbance readings using no enzyme and no compound controls. They were calculated using the non-linear regression curve fit method.
# [12] = system: MRSA (ATCC43300); assay: Antibacterial susceptibility test, microbroth dilution MIC; format: cell-based, methicillin-resistant Staphylococcus aureus; conditions: mean ± SD
# [13] = system: Staphylococcus epidermis (NCIM 2493); design: method as in Yele et al., 2020, 2021; conditions: ref Yele et al., 2020, 2021; cited from earlier work
# [14] = system: Escherichia coli (NCIM 2567); design: method as in Yele et al., 2020, 2021; conditions: ref Yele et al., 2020, 2021; cited from earlier work
# [15] = system: E. coli; assay: Checkerboard synergy with FDA approved drugs; format: cell-based, Escherichia coli
# [16] = FIC of compound 5 in combination
# [17] = FIC of compound 21 in combination with the row's drug
# [18] = FIC of the drug in combination with compound 5
# [19] = FIC of the drug in combination with compound 21
# T1 sequence (P20083 whole entry): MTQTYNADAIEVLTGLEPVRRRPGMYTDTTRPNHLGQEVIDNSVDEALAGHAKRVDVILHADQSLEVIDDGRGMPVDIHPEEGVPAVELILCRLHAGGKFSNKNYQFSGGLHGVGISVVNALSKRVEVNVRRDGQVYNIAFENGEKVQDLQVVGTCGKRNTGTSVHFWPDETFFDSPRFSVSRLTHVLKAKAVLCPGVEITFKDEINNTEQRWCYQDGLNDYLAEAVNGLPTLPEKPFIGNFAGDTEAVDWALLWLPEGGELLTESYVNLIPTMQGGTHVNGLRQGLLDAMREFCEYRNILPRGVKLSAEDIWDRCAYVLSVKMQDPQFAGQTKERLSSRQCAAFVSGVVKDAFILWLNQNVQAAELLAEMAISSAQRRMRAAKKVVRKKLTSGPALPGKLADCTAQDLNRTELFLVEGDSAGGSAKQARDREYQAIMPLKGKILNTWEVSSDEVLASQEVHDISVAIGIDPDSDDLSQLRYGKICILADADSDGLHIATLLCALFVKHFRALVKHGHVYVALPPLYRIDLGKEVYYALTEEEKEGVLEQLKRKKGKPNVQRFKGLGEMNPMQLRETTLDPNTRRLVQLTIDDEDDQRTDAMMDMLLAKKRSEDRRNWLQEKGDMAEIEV
# T1 sequence (P0AFI2 whole entry, further chain): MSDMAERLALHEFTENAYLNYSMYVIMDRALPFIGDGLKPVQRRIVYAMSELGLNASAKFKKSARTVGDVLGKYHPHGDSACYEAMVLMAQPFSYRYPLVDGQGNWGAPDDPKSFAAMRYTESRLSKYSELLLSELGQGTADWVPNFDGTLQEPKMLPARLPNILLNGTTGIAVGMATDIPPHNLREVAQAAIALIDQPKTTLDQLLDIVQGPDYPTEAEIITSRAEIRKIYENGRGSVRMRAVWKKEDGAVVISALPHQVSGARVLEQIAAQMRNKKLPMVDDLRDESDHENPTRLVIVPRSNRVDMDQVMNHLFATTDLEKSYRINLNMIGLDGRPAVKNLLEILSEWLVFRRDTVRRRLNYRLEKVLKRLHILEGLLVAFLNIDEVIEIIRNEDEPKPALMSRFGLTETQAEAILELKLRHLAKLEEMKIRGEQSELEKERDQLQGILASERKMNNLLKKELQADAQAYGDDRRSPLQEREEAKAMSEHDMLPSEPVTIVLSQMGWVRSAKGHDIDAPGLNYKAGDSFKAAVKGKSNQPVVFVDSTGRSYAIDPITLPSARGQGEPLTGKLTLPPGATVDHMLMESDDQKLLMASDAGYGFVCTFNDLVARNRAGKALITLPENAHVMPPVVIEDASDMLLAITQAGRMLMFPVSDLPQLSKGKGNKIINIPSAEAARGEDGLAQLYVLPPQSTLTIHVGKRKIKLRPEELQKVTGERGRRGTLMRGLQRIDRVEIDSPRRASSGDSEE
SMILES,Minimum inhibitory concentration [1],Minimum inhibitory concentration (MIC) P. a [2],Minimum inhibitory concentration (MIC) B. s [3],Minimum inhibitory concentration [4],Minimum inhibitory concentration (MIC) S. a [5],MBC [6],MBC/MIC [6],MBC [7],MBC/MIC [7],MBC [8],MBC/MIC [8],Minimum inhibitory concentration (MIC) M. t [9],Minimum inhibitory concentration (MIC) K. p [10],IC50 against E. coli ParE enzyme [11],Minimum inhibitory concentration [12],Minimum inhibitory concentration (MIC) S. e [13],Minimum inhibitory concentration (MIC) E. c [14],also measured
O=C(COc1ccccc1NC(=O)CCl)Nc1ccc(S(=O)(=O)O)cc1 [Compound 6],1.56 ± 0.30 µg/mL,0.64,3.56,1.86 ± 0.10 µg/mL,5.23,3.7 ± 0.12 µg/mL,3,7.39 ± 0.18 µg/mL,4,4.56 ± 0.08 µg/mL,3,15.23,0.78,1.19 µg/mL,1.71 ± 0.21 µg/mL,7.89,0.86,
O=C(COc1ccccc1NC(=O)CCl)Nc1cccc(Cl)c1 [Compound 10],0.83 ± 0.05 µg/mL,10.81,1.97,0.82 ± 0.03 µg/mL,0.92,0.83 ± 0.05 µg/mL,1,0.82 ± 0.03 µg/mL,1,0.88 ± 0.10 µg/mL,1,5.26,14.70,1.84 µg/mL,0.88 ± 0.10 µg/mL,1.95,7.07,
O=C(COc1ccccc1NC(=O)CCl)Nc1cc(Cl)c(Cl)cc1Cl [Compound 11],0.97 ± 0.01 µg/mL,9.33,0.94,1.79 ± 0.16 µg/mL,0.68,0.97 ± 0.01 µg/mL,1,7.18 ± 0.15 µg/mL,4,0.84 ± 0.05 µg/mL,1,4.71,4.43,1.81 µg/mL,0.84 ± 0.05 µg/mL,1.33,7.98,
COc1ccc(C(=O)NNC(=O)COc2ccccc2NC(=O)CCl)cc1 [Compound 13],2.60 ± 0.26 µg/mL,1.25,7.10,8.36 ± 0.30 µg/mL,3.28,9.43 ± 0.11 µg/mL,4,,,,,1.33,0.89,2.73 µg/mL,2.47 ± 0.46 µg/mL,4.15,1.92,
O=C(COc1ccccc1NC(=O)CCl)NNC(=O)c1ccccc1Cl [Compound 15],0.98 ± 0.07 µg/mL,1.45,0.67,5.60 ± 0.36 µg/mL,0.62,,,,,3.18 ± 0.32 µg/mL,2,3.52,1.89,1.33 µg/mL,1.51 ± 0.49 µg/mL,0.64,1.63,
O=C(COc1ccccc1NC(=O)CCl)NNC(=O)c1ccncc1 [Compound 16],2.60 ± 0.28 µg/mL,3.23,11.59,5.65 ± 0.27 µg/mL,8.99,9.12 ± 0.11 µg/mL,4,,,,,1.79,2.56,2.62 µg/mL,2.74 ± 0.19 µg/mL,7.24,2.12,
Cc1ccc(S(=O)(=O)NC(=O)COc2ccccc2NC(=O)CCl)cc1 [Compound 18],1.42 ± 0.23 µg/mL,4.67,3.52,1.81 ± 0.40 µg/mL,2.48,1.42 ± 0.23 µg/mL,1,1.81 ± 0.40 µg/mL,1,3.74 ± 0.16 µg/mL,2,4.62,5.25,1.81 µg/mL,1.74 ± 0.21 µg/mL,3.96,5.20,
O=C(CSc1nc2ccccc2s1)Nc1ccccc1 [Compound 23],0.95 ± 0.05 µg/mL,1.88,1.27,0.94 ± 0.04 µg/mL,1.84,0.95 ± 0.05 µg/mL,1,0.94 ± 0.04 µg/mL,1,0.75 ± 0.11 µg/mL,1,1.74,1.62,1.76 µg/mL,0.75 ± 0.11 µg/mL,1.51,2.11,
COc1ccc(OCC(=O)Nc2ccc(Cl)cc2)cc1 [Compound 28],1.88 ± 0.11 µg/mL,5.55,2.04,2.70 ± 0.22 µg/mL,1.21,3.85 ± 0.25 µg/mL,2,10.62 ± 0.44 µg/mL,4,,,1.47,1.98,1.93 µg/mL,2.04 ± 0.16 µg/mL,0.71,0.88,
C[C@H]1c2cccc(O)c2C(=O)C2=C(O)[C@]3(O)C(=O)C(C(N)=O)=C(O)[C@@H](N(C)C)[C@@H]3[C@@H](O)[C@@H]21 [Doxycycline],,,,,,,,,,,,,,,,,,"FIC A [15, 16]: 0.0702; FIC A [15, 17]: 0.1813; FIC B [15, 18]: 0.0273; FIC B [15, 19]: 0.0262; Inference ([15]; drug combined with compound 5): Synergistic (synergistic when the ΣFICs is ≤ 0.5); ΣFIC A + FIC B ([15]; drug combined with compound 5): 0.0975; Inference ([15]; drug combined with compound 21): Synergistic (synergistic when the ΣFICs is ≤ 0.5); ΣFIC A + FIC B ([15]; drug combined with compound 21): 0.2075"
CO[C@H]1/C=C/O[C@@]2(C)Oc3c(C)c(O)c4c(O)c(c(/C=N/N5CCN(C)CC5)c(O)c4c3C2=O)NC(=O)/C(C)=C\C=C\[C@H](C)[C@H](O)[C@@H](C)[C@@H](O)[C@@H](C)[C@H](OC(C)=O)[C@@H]1C [Rifampicin],,,,,,,,,,,,,,,,,,"FIC A [15, 16]: 0.1202; FIC A [15, 17]: 0.1942; FIC B [15, 18]: 0.0524; FIC B [15, 19]: 0.1281; Inference ([15]; drug combined with compound 5): Synergistic (synergistic when the ΣFICs is ≤ 0.5); ΣFIC A + FIC B ([15]; drug combined with compound 5): 0.1726; Inference ([15]; drug combined with compound 21): Synergistic (synergistic when the ΣFICs is ≤ 0.5); ΣFIC A + FIC B ([15]; drug combined with compound 21): 0.3223"
